The IC50 is the concentration needed to halve the response being measured.

The values below come from patent US20130102593A1, “PYRROLIDINE COMPOUNDS WHICH INHIBIT BETA-SECRETASE ACTIVITY AND METHODS OF USE THEREOF” (priority 2008, published 2013).

Read-outs that look alike come from different tables or passages of the source.

This assay relates to Aβ production. Briefly: Cellular Aβ IC50 determination (memapsin 2 activity in a cellular assay of Aβ production). The class given is cell-based, Chinese hamster. To be noted: Cricetulus griseus, read-out: M2 IC50. The method, then:
The potency of compounds against memapsin 2 activity was determined in a cellular assay of Aβ production. […] Chinese hamster ovary cells that over-express human APP695 with the London and Swedish mutations were seeded in multi-well plates at 10% confluency. Compounds are dissolved in DMSO to concentrations near 1 mM, and diluted into culture media to a final concentration near 4 μM (final 0.4% DMSO). Compounds were diluted serially and applied to cells in multi-well plates 48 h after seeding. Incubation was continued in 5% CO2 at 37° C. for 24 h. Aliquots were removed and assayed for […] content using a sandwich ELISA (BioSource International). Amount of Aβ40 over the range of concentration of compounds, relative to control incubations, were fit to a 4-parameter IC50 model.

Where [1] appears, read: Chinese hamster ovary cells over-expressing human APP695 with London and Swedish mutations, 24 h, Aβ40 sandwich ELISA.

For `Cc1csc([C@H]2CCCN2C(=O)c2cc(CF)cc(C(=O)N[C@@H](Cc3ccccc3)[C@H](O)[C@H]3C[C@@H](OCc4ccccc4)CN3)c2)n1` [1-36, N-((1R,2S)-1-((2R,4R)-4-(benzyloxy)pyrrolidin-2-yl)-1-hydroxy-3-phenylpropan-2-yl)-3-(fluoromethyl)-5-((R)-2-(4-methylthiazol-2-yl)pyrrolidine-1-carbonyl)benzamide], under setting [1], the IC50 was below 500 nM. As for `Cc1coc([C@H]2CCCN2C(=O)c2cccc(C(=O)N[C@@H](Cc3ccccc3)[C@H](O)CNCc3cncc(C(C)(C)C)c3)c2)n1` [2-4, N-((2S,3R)-4-((5-tert-butylpyridin-3-yl)methylamino)-3-hydroxy-1-phenylbutan-2-yl)-3-((R)-2-(4-methyloxazol-2-yl)pyrrolidine-1-carbonyl)benzamide, reference compound], the half-maximal inhibitory concentration (IC50) under setting [1] is below 500 nM. Same read-out and setting: to `Cc1csc([C@H]2CCCN2C(=O)c2cccc(C(=O)N[C@@H](Cc3cccc(F)c3)[C@H](O)[C@H]3CCCN3)c2)n1` [1-53, N-((1R,2S)-3-(3-fluorophenyl)-1-hydroxy-1-((R)-pyrrolidin-2-yl)propan-2-yl)-3-((R)-2-(4-methylthiazol-2-yl)pyrrolidine-1-carbonyl)benzamide] belongs 500 to 1000 nM; to `Cc1csc([C@H]2CCCN2C(=O)c2cccc(C(=O)N[C@@H](Cc3cc(F)cc(F)c3)[C@H](O)[C@H]3CCCN3)c2)n1` [1-44, N-((1R,2S)-3-(3,5-difluorophenyl)-1-hydroxy-1-((R)-pyrrolidin-2-yl)propan-2-yl)-3-((R)-2-(4-methylthiazol-2-yl)pyrrolidine-1-carbonyl)benzamide], 500 to 1000 nM; to `Cc1cc(C(=O)N[C@@H](Cc2ccccc2)[C@H](O)[C@H]2CCCN2)cc(C(=O)N2CCC[C@@H]2c2nc(C)co2)c1` [1-8, N-((1R,2S)-1-hydroxy-3-phenyl-1-((R)-pyrrolidin-2-yl)propan-2-yl)-3-methyl-5-((R)-2-(4-methyloxazol-2-yl)pyrrolidine-1-carbonyl)benzamide], above 1000 nM. In the case of `Cc1coc([C@H]2CCCN2C(=O)c2cc(C(=O)N[C@@H](Cc3ccccc3)[C@H](O)[C@H]3CCCN3)cc(-c3ncco3)c2)n1` [1-17, N-((1R,2S)-1-hydroxy-3-phenyl-1-((R)-pyrrolidin-2-yl)propan-2-yl)-3-((R)-2-(4-methyloxazol-2-yl)pyrrolidine-1-carbonyl)-5-(oxazol-2-yl)benzamide], the IC50 under setting [1] was below 500 nM. On the same count and under the same terms, the figure for `Cc1cc(C(=O)N[C@@H](Cc2ccccc2)[C@H](O)[C@H]2CCCN2C(=O)OC(C)(C)C)cc(C(=O)N2CCC[C@@H]2c2nc(C)co2)c1` [1-6, (R)-tert-butyl 2-((1S,2S)-1-hydroxy-2-(3-methyl-5-((R)-2-(4-methyloxazol-2-yl)pyrrolidine-1-carbonyl)benzamido)-3-phenylpropyl)pyrrolidine-1-carboxylate] is above 1000 nM; for `Cc1coc([C@H]2CCCN2C(=O)c2cccc(C(=O)N[C@@H](Cc3ccccc3)[C@H](O)[C@H]3CCCN3)c2)n1` [1-4, N-((1R,2S)-1-hydroxy-3-phenyl-1-((R)-pyrrolidin-2-yl)propan-2-yl)-3-((R)-2-(4-methyloxazol-2-yl)pyrrolidine-1-carbonyl)benzamide] it is above 1000 nM.

For the compound `Cc1csc([C@H]2CCCN2C(=O)c2cc(C(=O)N[C@@H](Cc3cc(F)cc(F)c3)[C@H](O)[C@H]3CCCN3)cc(-c3ncco3)c2)n1` [1-49, N-((1R,2S)-3-(3,5-difluorophenyl)-1-hydroxy-1((R)-pyrrolidin-2-yl)propan-2-yl)-3-((R)-2-(4-methylthiazol-2-yl)pyrrolidine-1-carbonyl)-5-(oxazol-2-yl)benzamide], the 50% inhibitory concentration (IC50) under setting [1] was below 500 nM. The same measure, in the same setting: to `Cc1coc([C@H]2CCCN2C(=O)c2cc(C(=O)N[C@@H](Cc3ccccc3)[C@H](O)[C@H]3CCCN3)cc(-c3ccccn3)c2)n1` [1-24, N-((1R,2S)-1-hydroxy-3-phenyl-1-((R)-pyrrolidin-2-yl)propan-2-yl)-3-((R)-2-(4-methyloxazol-2-yl)pyrrolidine-1-carbonyl)-5-(pyridin-2-yl)benzamide] belongs below 500 nM; to `C[C@@H](NC(=O)c1cc(C(=O)N[C@@H](Cc2ccccc2)[C@H](O)[C@H]2CCCN2)cc(N(C)S(C)(=O)=O)c1)c1ccccc1` [1-11, N1-((1R,2S)-1-hydroxy-3-phenyl-1-((R)-pyrrolidin-2-yl)propan-2-yl)-5-(N-methylmethylsulfonamido)-N3-((R)-1-phenylethyl)isophthalamide], below 500 nM; to `Cc1csc([C@H]2CCCN2C(=O)c2cc(C(=O)N[C@@H](Cc3ccccc3)[C@H](O)[C@H]3C[C@@H](OCc4ccccc4)CN3)cc(-c3ncco3)c2)n1` [1-52, N-((1R,2S)-1-((2R,4R)-4-(benzyloxy)pyrrolidin-2-yl)-1-hydroxy-3-phenylpropan-2-yl)-3-((R)-2-(4-methylthiazol-2-yl)pyrrolidine-1-carbonyl)-5-(oxazol-2-yl)benzamide], below 500 nM.

Consider `Cc1cc(C(=O)N[C@@H](Cc2ccccc2)[C@H](O)CNCc2cncc(C(C)(C)C)c2)cc(C(=O)N2CCC[C@@H]2c2nc(C)co2)c1` [2-3, N-((2S,3R)-4-((5-tert-butylpyridin-3-yl)methylamino)-3-hydroxy-1-phenylbutan-2-yl)-3-methyl-5-((R)-2-(4-methyloxazol-2-yl)pyrrolidine-1-carbonyl)benzamide, reference compound], for which, under setting [1], the half-maximal inhibitory concentration (IC50) is below 500 nM.

As to `Cc1csc([C@H]2CCCN2C(=O)c2cc(C(=O)N[C@@H](Cc3ccccc3)[C@H](O)[C@H]3C[C@@H](OCc4ccccc4)CN3)cc(-n3cccc3)c2)n1` [1-25, N-((1R,2S)-1-((2R,4R)-4-(benzyloxy)pyrrolidin-2-yl)-1-hydroxy-3-phenylpropan-2-yl)-3-((R)-2-(4-methylthiazol-2-yl)pyrrolidine-1-carbonyl)-5-(1H-pyrrol-1-yl)benzamide], the IC50 reads like this: (CHO cells over-expressing human APP695, Aβ40 ELISA) 55.6 nM; under setting [1], below 500 nM.

As for `Cc1csc([C@H]2CCCN2C(=O)c2cc(C(=O)N[C@@H](Cc3ccccc3)[C@H](O)[C@H]3CCCN3)cc(N(C)C)c2)n1` [1-42, 3-(dimethylamino)-N-((1R,2S)-1-hydroxy-3-phenyl-1-((R)-pyrrolidin-2-yl)propan-2-yl)-5-((R)-2-(4-methylthiazol-2-yl)pyrrolidine-1-carbonyl)benzamide], under setting [1], the half-inhibitory concentration (IC50) is above 1000 nM. As for `Cc1csc([C@H]2CCCN2C(=O)c2cc(C(=O)N[C@@H](Cc3ccccc3)[C@H](O)CNCc3cncc(C(C)C)c3)cc(-c3ccco3)c2)n1` [2-2, 3-(furan-2-yl)-N-((2S,3R)-3-hydroxy-4-((5-isopropylpyridin-3-yl)methylamino)-1-phenylbutan-2-yl)-5-((R)-2-(4-methylthiazol-2-yl)pyrrolidine-1-carbonyl)benzamide, reference compound], the concentration for half-maximal inhibition (IC50) under setting [1] is below 500 nM. Still for that read-out and setting: the figure for `Cc1csc(CN(C(=O)c2cccc(C(=O)N[C@@H](Cc3ccccc3)[C@H](O)CNCc3cccc(C(F)(F)F)c3)c2)C2CC2)n1` [2-9, N1-cyclopropyl-N3-((2S,3R)-3-hydroxy-1-phenyl-4-(3-(trifluoromethyl)benzylamino)butan-2-yl)-N1-((4-methylthiazol-2-yl)methyl)isophthalamide, reference compound] is below 500 nM; for `Cc1csc([C@H]2CCCN2C(=O)c2cc(C(=O)N[C@@H](Cc3ccccc3)[C@H](O)[C@H]3CCCN3)cc(N3CCOCC3)c2)n1` [1-33, N-((1R,2S)-1-hydroxy-3-phenyl-1-((R)-pyrrolidin-2-yl)propan-2-yl)-3-((R)-2-(4-methylthiazol-2-yl)pyrrolidine-1-carbonyl)-5-morpholinobenzamide] it is above 1000 nM; for `COc1cc(C(=O)N[C@@H](Cc2ccccc2)[C@H](O)[C@H]2CCCN2)cc(C(=O)N2CCC[C@@H]2c2nc(C)cs2)c1` [1-34, N-((1R,2S)-1-hydroxy-3-phenyl-1-((R)-pyrrolidin-2-yl)propan-2-yl)-3-methoxy-5-((R)-2-(4-methylthiazol-2-yl)pyrrolidine-1-carbonyl)benzamide] it is above 1000 nM. Same read-out and setting: the figure for `Cc1csc([C@H]2CCCN2C(=O)c2cc(C(=O)N[C@@H](Cc3ccccc3)[C@H](O)[C@H]3CCCN3)cc(-c3cccc(C(F)(F)F)c3)c2)n1` [1-43, N-((1R,2S)-1-hydroxy-3-phenyl-1-((R)-pyrrolidin-2-yl)propan-2-yl)-5-((R)-2-(4-methylthiazol-2-yl)pyrrolidine-1-carbonyl)-3′-(trifluoromethyl)biphenyl-3-carboxamide] is above 1000 nM.

Consider `Cc1csc([C@H]2CCCN2C(=O)c2cc(C(=O)N[C@@H](Cc3ccccc3)[C@H](O)[C@H]3CCCN3)cc(-n3cccc3)c2)n1` [1-16, N1-((1R,2S)-1-hydroxy-3-phenyl-1-((R)-pyrrolidin-2-yl)propan-2-yl)-3-((R)-2-(4-methylthiazol-2-yl)pyrrolidine-1-carbonyl)-5-(1H-pyrrol-1-yl)benzamide], for which the IC50 under setting [1] is 500 to 1000 nM. On the same count and under the same terms, to `Cc1csc(CN(C)C(=O)c2cccc(C(=O)N[C@@H](Cc3ccccc3)[C@H](O)[C@H]3CCCN3)c2)n1` [1-2, N1-((1R,2S)-1-hydroxy-3-phenyl-1-((R)-pyrrolidin-2-yl)propan-2-yl)-N3-methyl-N3-((4-methylthiazol-2-yl)methyl)isophthalamide] belongs above 1000 nM; to `Cc1csc([C@H]2CCCN2C(=O)c2cc(C(=O)N[C@@H](Cc3ccccc3)[C@H](O)[C@H]3CCCN3)cc(N3CCC(F)(F)CC3)c2)n1` [1-46, 3-(4,4-difluoropiperidin-1-yl)-N-((1R,2S)-1-hydroxy-3-phenyl-1-((R)-pyrrolidin-2-yl)propan-2-yl)-5-((R)-2-(4-methylthiazol-2-yl)pyrrolidine-1-carbonyl)benzamide], 500 to 1000 nM.
